{"source": "patent US10865211B2", "about": "(ENANTA PHARMACEUTICALS, INC, priority 2018, dated 2020)", "key": {"2.2.15 cells": {"test_system": "2.2.15 cells", "experiment": "Antiviral activity in 2.2.15 cells: reduction of viral product accumulation (qPCR, HBsAg/HBeAg ELISA)", "type": "cell-based, HBV", "settings": "Hepatitis B virus, 120 h, day 5 post treatment, concentration reducing viral product accumulation in cell lysates or supernatants by 50% relative to no drug controls", "protocol": "2.2.15 cells are passaged upon attaining confluency in DMEM/F12 media in the presence of 10% FBS, Penn/Strep, and 250 ug/mL G418. Novel compounds are 5 fold serially diluted in DMSO and added to 96 well plates containing 35,000 cells/well at a 1:200 dilution so that the final concentration of DMSO is 0.5%. On day 5, post treatment cell lysates and supernatants are harvested for analysis.\nCells are lysed using Agilent Sidestep Lysis buffer, diluted 1:100 and quantified via quantitative real time PCR. Commercially available ELISA kits are used to quantitate the viral proteins HBsAg (Alpco) or HBeAg (US Biological) by following the manufacturer's recommended protocol after diluting samples to match the linear range of their respective assays. Irrespective of readout, compound concentrations that reduce viral product accumulation in the cell lysates or supernatants by 50% relative to no drug controls (EC50) are reported; EC50 ranges are as follows: A<0.1 μM; B 0.1-1 μM; C>1 μM."}, "[1]": {"experiment": "Compound induced cellular toxicity in HepG2 cells (ATPlite)", "type": "cell-based", "settings": "human, three days, ATPlite 1 Step, concentration reducing total ATP levels by 50% relative to no drug controls", "protocol": "At day 3, post seeding cells are treated with ATPlite 1 Step according to the manufacturer's instructions."}}, "data": [{"smiles": "CCC1Cc2c(oc3ccccc23)-c2cc(=O)c(C(=O)O)cn21", "note": "(centres unmarked) [Example 1, 6-ethyl-2-oxo-6,7-dihydro-2H-benzofuro[2,3-a]quinolizine-3-carboxylic acid]", "values": [{"measurement": "EC50", "setting": "2.2.15 cells", "value": "100 to 1000", "unit": "nM"}, {"measurement": "CC50 at 3 days", "setting": "[1]", "value": "> 25000", "unit": "nM"}]}, {"smiles": "CC(C)(C)[C@@H]1Cc2c(oc3cc(-c4ccoc4)ccc23)-c2cc(=O)c(C(=O)O)cn21", "note": "[Example 5, (S)-6-(tert-butyl)-10-(furan-3-yl)-2-oxo-6,7-dihydro-2H-benzofuro[2,3-a]quinolizine-3-carboxylic acid]", "values": [{"measurement": "EC50", "setting": "2.2.15 cells", "value": "< 100", "unit": "nM"}]}, {"smiles": "Cn1ccc(-c2ccc3c4c(oc3c2)-c2cc(=O)c(C(=O)O)cn2[C@H](C(C)(C)C)C4)n1", "note": "[Example 9, (S)-6-(tert-butyl)-10-(1-methyl-1H-pyrazol-3-yl)-2-oxo-6,7-dihydro-2H-benzofuro[2,3-a]quinolizine-3-carboxylic acid]", "values": [{"measurement": "EC50", "setting": "2.2.15 cells", "value": "< 100", "unit": "nM"}]}, {"smiles": "CC(C)(C)[C@@H]1Cc2c(oc3cc(-c4ccco4)ccc23)-c2cc(=O)c(C(=O)O)cn21", "note": "[Example 15, (S)-6-(tert-butyl)-10-(furan-2-yl)-2-oxo-6,7-dihydro-2H-benzofuro[2,3-a]quinolizine-3-carboxylic acid]", "values": [{"measurement": "EC50", "setting": "2.2.15 cells", "value": "< 100", "unit": "nM"}]}, {"smiles": "CC(C)(C)[C@@H]1Cc2c(oc3cc(-c4cccs4)ccc23)-c2cc(=O)c(C(=O)O)cn21", "note": "[Example 18, (S)-6-(tert-butyl)-2-oxo-10-(thiophen-2-yl)-6,7-dihydro-2H-benzofuro[2,3-a]quinolizine-3-carboxylic acid]", "values": [{"measurement": "EC50", "setting": "2.2.15 cells", "value": "< 100", "unit": "nM"}]}, {"smiles": "CC(C)(C)[C@@H]1Cc2c(oc3cc(-c4cnsc4)ccc23)-c2cc(=O)c(C(=O)O)cn21", "note": "[Example 19, (S)-6-(tert-butyl)-10-(isothiazol-4-yl)-2-oxo-6,7-dihydro-2H-benzofuro[2,3-a]quinolizine-3-carboxylic acid]", "values": [{"measurement": "EC50", "setting": "2.2.15 cells", "value": "< 100", "unit": "nM"}]}, {"smiles": "CC(C)(C)[C@@H]1Cc2c(oc3cc(-c4ccsc4)ccc23)-c2cc(=O)c(C(=O)O)cn21", "note": "[Example 20, (S)-6-(tert-butyl)-2-oxo-10-(thiophen-3-yl)-6,7-dihydro-2H-benzofuro[2,3-a]quinolizine-3-carboxylic acid]", "values": [{"measurement": "EC50", "setting": "2.2.15 cells", "value": "< 100", "unit": "nM"}]}, {"smiles": "CC(C)(C)[C@@H]1Cc2c(oc3cc(-c4cscn4)ccc23)-c2cc(=O)c(C(=O)O)cn21", "note": "[Example 22, (S)-6-(tert-butyl)-2-oxo-10-(thiazol-4-yl)-6,7-dihydro-2H-benzofuro[2,3-a]quinolizine-3-carboxylic acid]", "values": [{"measurement": "EC50", "setting": "2.2.15 cells", "value": "< 100", "unit": "nM"}]}, {"smiles": "CC(C)(C)[C@@H]1Cc2c(oc3c(N4CCCC4)cccc23)-c2cc(=O)c(C(=O)O)cn21", "note": "[Example 40, (S)-6-(tert-butyl)-2-oxo-11-(pyrrolidin-1-yl)-6,7-dihydro-2H-benzofuro[2,3-a]quinolizine-3-carboxylic acid]", "values": [{"measurement": "EC50", "setting": "2.2.15 cells", "value": "< 100", "unit": "nM"}]}, {"smiles": "Cc1cccc2c3c(oc12)-c1cc(=O)c(C(=O)O)cn1[C@H](C(C)(C)C)C3", "note": "[Example 44, (S)-6-(tert-butyl)-11-methyl-2-oxo-6,7-dihydro-2H-benzofuro[2,3-a]quinolizine-3-carboxylic acid]", "values": [{"measurement": "EC50", "setting": "2.2.15 cells", "value": "100 to 1000", "unit": "nM"}]}, {"smiles": "Cn1ccc(-c2cccc3c4c(oc23)-c2c(F)c(=O)c(C(=O)O)cn2[C@H](C(C)(C)C)C4)n1", "note": "[Example 56, (S)-6-(tert-butyl)-1-fluoro-11-(1-methyl-1H-pyrazol-3-yl)-2-oxo-6,7-dihydro-2H-benzofuro[2,3-a]quinolizine-3-carboxylic acid]", "values": [{"measurement": "EC50", "setting": "2.2.15 cells", "value": "< 100", "unit": "nM"}]}, {"smiles": "CC(C)(C)[C@@H]1Cc2c(oc3c(N4CCC(F)(F)C4)cccc23)-c2c(F)c(=O)c(C(=O)O)cn21", "note": "[Example 60, (S)-6-(tert-butyl)-11-(3,3-difluoropyrrolidin-1-yl)-1-fluoro-2-oxo-6,7-dihydro-2H-benzofuro[2,3-a]quinolizine-3-carboxylic acid]", "values": [{"measurement": "EC50", "setting": "2.2.15 cells", "value": "< 100", "unit": "nM"}]}, {"smiles": "CC(C)[C@@H]1Cc2c(oc3cc(-c4cccs4)ccc23)-c2cc(=O)c(C(=O)O)cn21", "note": "[Example 75, (S)-6-isopropyl-2-oxo-10-(thiophen-2-yl)-6,7-dihydro-2H-benzofuro[2,3-a]quinolizine-3-carboxylic acid]", "values": [{"measurement": "EC50", "setting": "2.2.15 cells", "value": "< 100", "unit": "nM"}]}]}
